Measured values reported in ChEMBL document CHEMBL1152407, “Identification of inhibitors of checkpoint kinase 1 through template screening” (J Med Chem, 2009).

Experiments:
[1] = target: T1, Serine/threonine-protein kinase Chk1 (Homo sapiens) (UniProt O14757); assay: Inhibition of CHK1 at 250 uM by alphascreen assay
T1 sequence (whole entry): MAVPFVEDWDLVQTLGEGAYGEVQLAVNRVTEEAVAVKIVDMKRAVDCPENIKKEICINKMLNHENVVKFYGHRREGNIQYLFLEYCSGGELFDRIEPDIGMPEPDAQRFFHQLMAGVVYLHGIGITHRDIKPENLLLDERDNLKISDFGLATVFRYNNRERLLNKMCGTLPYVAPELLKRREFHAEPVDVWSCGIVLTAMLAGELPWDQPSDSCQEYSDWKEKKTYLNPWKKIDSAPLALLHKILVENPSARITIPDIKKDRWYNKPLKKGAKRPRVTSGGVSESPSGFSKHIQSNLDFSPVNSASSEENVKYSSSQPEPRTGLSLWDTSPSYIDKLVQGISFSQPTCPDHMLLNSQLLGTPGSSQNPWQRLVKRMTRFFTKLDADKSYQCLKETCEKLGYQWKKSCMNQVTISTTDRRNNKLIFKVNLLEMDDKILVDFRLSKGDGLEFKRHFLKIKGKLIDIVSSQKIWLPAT

[2] = target: T1, Serine/threonine-protein kinase Chk1 (Homo sapiens); assay: Inhibition of CHK1 assessed as CDC25C peptide phosphorylation at 100 uM by DELFIA assay
[3] = target: T1, Serine/threonine-protein kinase Chk1 (Homo sapiens); assay: Inhibition of CHK1 at 250 uM by alphascreen assay in presence of 0.01% Triton-X100
[4] = target: Serine/threonine-protein kinase Chk2 (Homo sapiens, UniProt O96017)
Chain of Serine/threonine-protein kinase Chk2 (O96017 whole entry): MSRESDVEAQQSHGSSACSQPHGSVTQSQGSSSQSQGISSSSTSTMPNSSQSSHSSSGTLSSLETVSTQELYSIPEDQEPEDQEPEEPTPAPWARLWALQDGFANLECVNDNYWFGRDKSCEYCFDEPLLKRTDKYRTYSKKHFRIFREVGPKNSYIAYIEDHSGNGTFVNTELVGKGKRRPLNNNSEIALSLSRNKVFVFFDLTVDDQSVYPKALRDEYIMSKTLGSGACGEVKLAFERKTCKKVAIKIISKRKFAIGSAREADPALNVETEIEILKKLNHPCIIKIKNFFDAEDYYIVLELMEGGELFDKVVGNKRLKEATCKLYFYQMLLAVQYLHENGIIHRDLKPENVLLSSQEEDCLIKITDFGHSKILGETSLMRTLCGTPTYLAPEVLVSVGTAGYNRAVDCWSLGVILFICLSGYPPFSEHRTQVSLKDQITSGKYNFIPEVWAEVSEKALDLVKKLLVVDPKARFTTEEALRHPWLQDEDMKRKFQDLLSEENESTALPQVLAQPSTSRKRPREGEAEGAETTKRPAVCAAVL
Description: Inhibition of CHK2 assessed as CDC25C peptide phosphorylation by DELFIA assay

[5] = target: Cyclin-dependent kinase 1 (Homo sapiens) (UniProt P06493); assay: Inhibition of CDK1 assessed as Rb (ser780) biotinylated peptide phosphorylation at 100 uM by DELFIA assay
Chain of Cyclin-dependent kinase 1 (Homo sapiens) (P06493 whole entry, looked up): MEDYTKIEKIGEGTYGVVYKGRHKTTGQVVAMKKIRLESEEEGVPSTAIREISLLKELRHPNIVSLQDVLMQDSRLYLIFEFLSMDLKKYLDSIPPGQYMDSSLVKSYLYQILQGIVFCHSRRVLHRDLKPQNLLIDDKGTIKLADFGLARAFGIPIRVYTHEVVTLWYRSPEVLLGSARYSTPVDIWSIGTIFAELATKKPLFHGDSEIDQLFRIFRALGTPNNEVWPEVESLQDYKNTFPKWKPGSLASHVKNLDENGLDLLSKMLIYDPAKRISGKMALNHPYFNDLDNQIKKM

HT-29 = assay: cells; settings: Homo sapiens, HT-29, 96 h
Description: Cytotoxicity against human HT-29 cells after 96 hrs by SRB assay

[6] = target: T2, Serine/threonine-protein kinase Chk1 (Homo sapiens, UniProt O14757)
T2 sequence (O14757 whole entry): T1 sequence (whole entry)
Description: Inhibition of CHK1 assessed as CDC25C peptide phosphorylation by DELFIA assay

[7] = Selectivity ratio of IC50 for CHK2 to IC50 for CHK1

SMILES	inhibition [1] [%]	inhibition [2] [%]	inhibition [3] [%]	other results
NC[C@@H]1CN(c2c(-c3ccccc3)cnc3[nH]ncc23)CCO1	–	–	–	IC50 [4]: 5.9 µM; inhibition [5]: 43%; GI50 (HT-29): 40 µM
NCC1CN(c2c(-c3ccsc3)cnc3[nH]ncc23)CCO1 (stereo not drawn)	–	–	–	IC50 [4]: 4.6 µM; IC50 [6]: 0.29 µM; Ratio IC50 [7]: 8; inhibition [5]: 48%; GI50 (HT-29): 10.5 µM
c1nc(N2CCOCC2)c2nc[nH]c2n1	75.7	–	63	–
CC(C)(C)OC(=O)NCC1CN(c2ncnc3[nH]cnc23)CCO1 (stereo not drawn)	–	43	–	–
NCC1CN(c2c(Br)cnc3[nH]ncc23)CCO1 (stereo not drawn)	–	–	–	IC50 [4]: 7.4 µM; Ratio IC50 [7]: 8; inhibition [5]: 37%; GI50 (HT-29): 16 µM
O=C(O)CC1CN(c2ncnc3[nH]cnc23)CCO1 (stereo not drawn)	–	22	–	–
CSC1=N/C(=C\c2cccs2)C(=O)N1	35.7	32	33.5	–
CC(C)(C)Nc1nc(N)c(C(=O)c2ccccc2)s1	36.9	33	39.9	–
CCOC(=O)c1cnc2[nH]ncc2c1N1CCOC(CN)C1 (stereo not drawn)	–	–	–	inhibition [5]: 3%
CC(=O)Nc1nc2c(s1)C(=O)NCCC2	51.4	27	43.1	–
O=c1[nH]cnc2sc3c(c12)CCCC3	38.5	–	45.3	–
O=C(O)C1COCCN1c1ncnc2[nH]cnc12 (stereo not drawn)	–	12	–	–

Second part, led by results:

inhibition [1] [%]	inhibition [2] [%]	inhibition [3] [%]	SMILES	other results
40.9	0	14.2	CCCNc1nc2ccccc2c(=O)[nH]1	–
26.4	–	6.5	Fc1ccc(-c2onc3ccc(-c4cc[nH]n4)cc23)cc1	–
50.1	–	52.8	COc1cccc(CNc2ncnc3cc(OC)c(OC)cc23)c1	–
41.9	–	41.5	Clc1ccc2c(Nc3ccccc3)ncnc2c1	–
